Results taken from US8575197B2, “Pyrolinone derivative and pharmaceutical composition comprising the same” (Shionogi & Co., Ltd., priority 2008, dated 2013).

Target: human P2X3 receptor (Homo sapiens (Human), UniProt P56373)
Experiment: P2X3 receptor inhibition, ATP-evoked Fluo-3 calcium fluorescence (FDSS 3000)
Type: cell-based
Conditions: C6BU-1 cell transfected with human P2X3 receptor gene; ATP-evoked Fluo-3 fluorescence
How it was run: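 C6BU-1 cells stably transfected with human P2X3, loaded with 4 μM Fluo-3-AM for 1 h at 37 °C in HEPES buffer pH 7.5 with probenecid. Compound added 5 min before 40 nM ATP solution; fluorescence followed 3 min. IC50 from ratio of peak post-ATP to baseline fluorescence.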

Sequence of human P2X3 receptor (P56373 whole entry): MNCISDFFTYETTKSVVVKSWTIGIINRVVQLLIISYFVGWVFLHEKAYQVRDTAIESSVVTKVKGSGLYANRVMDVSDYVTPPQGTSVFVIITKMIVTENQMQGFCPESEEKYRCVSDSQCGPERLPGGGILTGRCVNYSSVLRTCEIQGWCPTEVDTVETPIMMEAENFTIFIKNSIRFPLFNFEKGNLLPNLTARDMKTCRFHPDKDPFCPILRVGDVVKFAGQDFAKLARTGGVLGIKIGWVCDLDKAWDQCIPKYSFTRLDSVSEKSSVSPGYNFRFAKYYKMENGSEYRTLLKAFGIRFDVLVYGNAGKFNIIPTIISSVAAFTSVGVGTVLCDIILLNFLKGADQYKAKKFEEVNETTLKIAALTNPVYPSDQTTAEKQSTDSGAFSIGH

Row | Structure (SMILES) | IC50
1 | Cc1ccc(-c2ccc(N3C(=O)C(O)=C(C(=O)CC(C)C)C3c3ccccc3C(=O)N(C)C)cc2)s1 (stereo not drawn) [Compound I-406] | 29 nM
2 | CC(=O)NCCOc1ccccc1C1c2c(C(C)C)n[nH]c2C(=O)N1c1ccc(-c2ccsc2)cc1 (stereo not drawn) [II-176] | 10 nM
3 | COc1ccccc1C1c2c(C(C)(C)CO)n[nH]c2C(=O)N1c1ccc(-c2ccoc2)cc1 (stereo not drawn) [II-219] | 14 nM
4 | CNC(=O)CCc1ccccc1C1C(C(=O)C(C)C)=C(O)C(=O)N1c1ccc(-c2ccc(C)o2)cc1 (stereo not drawn) [Compound I-535] | 49 nM
5 | COc1ccccc1C1c2c(C(C)(C)C)n[nH]c2C(=O)N1c1ccc(-c2ncco2)cc1 (stereo not drawn) [II-209] | 87 nM
6 | COc1ccc(C(=O)C2=C(O)C(=O)N(c3ccc(-c4ccsc4)cc3)C2C2COC(C)(C)OC2)cn1 (stereo not drawn) [Compound I-288] | 36 nM
7 | COc1ccc(C(=O)C2=C(O)C(=O)N(c3ccc(-c4ccon4)cc3)C2c2ccc(Br)cc2OC)cc1 (stereo not drawn) [Compound I-131] | 251 nM
8 | COCOc1ccccc1C1C(C(=O)CC(C)C)=C(O)C(=O)N1c1ccc(-c2ccoc2)cc1 (stereo not drawn) [Compound I-349] | 37 nM
9 | CC(C)(C)C(=O)C1=C(O)C(=O)N(c2ccc(-c3ccon3)cc2)C1c1ccccc1OCC(=O)O (stereo not drawn) [Compound I-134] | 776 nM
10 | COc1ccccc1C1c2c(C(C)(CO)CO)n[nH]c2C(=O)N1c1ccc(-c2ccon2)cc1 (stereo not drawn) [II-258] | 304 nM
11 | COc1ccccc1C1c2c(C(C)=O)n[nH]c2C(=O)N1c1ccc(-c2ccsc2)cc1 (stereo not drawn) [II-188] | 156 nM
12 | CCNC(=O)c1ccc(C(=O)C2=C(O)C(=O)N(c3ccc(-c4ccon4)cc3)C2C(CC)CC)cc1 (stereo not drawn) [Compound I-004] | 12 nM
13 | CCCc1ccc(N2C(=O)c3[nH]nc(C(C)(C)C)c3C2c2ccccc2OC)cc1 (stereo not drawn) [II-001] | 104 nM
14 | CNC(=O)COc1ccccc1C1C(C(=O)C(C)(C)C)=C(O)C(=O)N1c1ccc(-c2ccsc2)cc1 (stereo not drawn) [Compound I-147] | 17 nM
15 | COCCOc1ncccc1C1C(C(=O)CC(C)(C)C)=C(O)C(=O)N1c1ccc(-c2ccsc2)cc1 (stereo not drawn) [Compound I-463] | 127 nM
16 | CC(C)c1n[nH]c2c1C(c1ccccc1C(N)=O)N(c1ccc(-c3ccsc3)cc1)C2=O (stereo not drawn) [II-090] | 2 nM

Row | Structure (SMILES) | IC50
17 | Cc1nc(-c2ccc(N3C(=O)C(O)=C(C(=O)C(C)C)C3c3ccccc3OC(F)(F)F)cc2)no1 (stereo not drawn) [Compound I-314] | 329 nM
18 | COCCOc1ncccc1C1c2c(C(C)(C)C)n[nH]c2C(=O)N1c1ccc(-c2ccco2)cc1 (stereo not drawn) [II-037] | 8 nM
19 | CC(C)(C)c1n[nH]c2c1C(c1ccccc1OCC#N)N(c1ccc(-c3ccsc3)cc1)C2=O (stereo not drawn) [II-173] | 4 nM
20 | CCOC(=O)c1ccc(N2C(=O)c3[nH]nc(C(C)(C)C)c3C2c2ccccc2OC)cc1 (stereo not drawn) [II-057] | 17 nM
21 | Cc1ncccc1C1C(C(=O)C(C)(C)C)=C(O)C(=O)N1c1ccc(-c2cccs2)cc1 (stereo not drawn) [Compound I-141] | 346 nM
22 | CN(C)CCOc1ccccc1C1c2c(C(C)(C)C)n[nH]c2C(=O)N1c1ccc(-c2ccon2)cc1 (stereo not drawn) [II-030] | 128 nM
23 | Cc1ccc(-c2ccc(N3C(=O)C(O)=C(C(=O)C(C)C)C3c3ccccc3CC(=O)N(C)C)cc2)o1 (stereo not drawn) [Compound I-493] | 105 nM
24 | COc1ncccc1C1c2c(C(C)(C)C)n[nH]c2C(=O)N1c1ccc(-c2noc(C)n2)cc1 (stereo not drawn) [II-194] | 392 nM
25 | COc1ccccc1C1c2c(C(C)(C)CO)n[nH]c2C(=O)N1c1ccc(-c2nccs2)cc1 (stereo not drawn) [II-141] | 22 nM
26 | COc1ccccc1C1c2c(C(C)(C)C)n[nH]c2C(=O)N1c1ccc(Br)cn1 (stereo not drawn) [II-246] | 871 nM
27 | COCCOc1ccccc1C1C(C(=O)CC(C)C)=C(O)C(=O)N1c1ccc(-c2ccon2)cc1 (stereo not drawn) [Compound I-309] | 182 nM
28 | CC(C)c1n[nH]c2c1C(c1ccccc1C(=O)N(C)C)N(c1ccc(-c3ccsc3)cc1)C2=O (stereo not drawn) [II-093] | 2 nM
29 | COC(=O)n1nc(C(C)(C)C)c2c1C(=O)N(c1ccc(Br)cc1)C2c1ccccc1OC (stereo not drawn) [II-229] | 82 nM
30 | COc1ccccc1C1c2c(C(C)(C)C(=O)N(C)C)n[nH]c2C(=O)N1c1ccc(-c2ccsc2)cc1 (stereo not drawn) [II-172] | 11 nM
31 | Cc1nc(-c2ccc(N3C(=O)C(O)=C(C(=O)CC(C)C)C3c3ccccc3OC(C)C)cc2)no1 (stereo not drawn) [Compound I-317] | 73 nM
32 | CC(C)CC(=O)C1=C(O)C(=O)N(c2ccc(C3=NCCS3)cc2)C1c1ccccc1OC(C)C (stereo not drawn) [Compound I-413] | 42 nM

Other lines, results leading:

Row | IC50 | Structure (SMILES)
33 | 6 nM | COCCCOc1ccccc1C1C(C(=O)C(C)C)=C(O)C(=O)N1c1ccc(-c2ccsc2)cc1 (stereo not drawn) [Compound I-489]
34 | 27 nM | COc1cc(F)ccc1C1C(C(=O)CC(C)C)=C(O)C(=O)N1c1ccc(-c2ccsc2)cc1 (stereo not drawn) [Compound I-326]
35 | 7 nM | COCCOc1ccccc1C1C(C(=O)C(C)C)=C(O)C(=O)N1c1ccc(-c2ccsc2)cc1 (stereo not drawn) [Compound I-161]
36 | 12 nM | CC(C)C(=O)C1=C(O)C(=O)N(c2ccc(-c3cccs3)cc2)C1c1ccccc1OCCO (stereo not drawn) [Compound I-223]
37 | 39 nM | COCCOc1ccccc1C1C(C(=O)C(C)C)=C(O)C(=O)N1c1ccc(-c2ccoc2)cc1 (stereo not drawn) [Compound I-201]
38 | 235 nM | CC(C)C(=O)C1=C(O)C(=O)N(c2ccc(-c3ccsc3)cc2)C1c1cccnc1OCC(=O)O (stereo not drawn) [Compound I-195]
39 | 210 nM | COCc1ccccc1C1C(C(=O)C(C)C)=C(O)C(=O)N1c1ccc2c(c1)cc(C)n2C (stereo not drawn) [Compound I-353]
40 | 5 nM | CC(C)C(=O)C1=C(O)C(=O)N(c2ccc(-c3ccsc3)cc2)C1c1ccccc1OCC1OCCO1 (stereo not drawn) [Compound I-551]
41 | 54 nM | Cc1nc(-c2ccc(N3C(=O)C(O)=C(C(=O)C(C)C)C3c3ccccc3OC(C)C)cc2)no1 (stereo not drawn) [Compound I-312]
42 | 24 nM | COCOc1ccccc1C1C(C(=O)C(C)C)=C(O)C(=O)N1c1ccc(-c2ccoc2)cc1 (stereo not drawn) [Compound I-232]
43 | 23 nM | COCCOc1ccccc1C1C(C(=O)C(C)C)=C(O)C(=O)N1c1ccc(-c2ccco2)cc1 (stereo not drawn) [Compound I-231]
44 | 612 nM | COc1ccccc1C1C(C(=O)C(C)(C)C)=C(O)C(=O)N1c1ccc(-c2ccsc2Cl)cc1 (stereo not drawn) [Compound I-192]
45 | 453 nM | CCc1nc2cc(N3C(=O)C(O)=C(C(=O)C(C)C)C3c3ccccc3OC(C)C)ccc2o1 (stereo not drawn) [Compound I-464]
46 | 12 nM | CC(C)C(=O)C1=C(O)C(=O)N(c2ccc(-c3ccsc3)cc2)C1c1ccccc1OCc1nnn[nH]1 (stereo not drawn) [Compound I-217]
47 | 47 nM | CC(C)C(=O)C1=C(O)C(=O)N(c2ccc(-c3ccsc3)cc2)C1c1ccccc1C(=O)N(C)C (stereo not drawn) [Compound I-245]
48 | 357 nM | COc1ccccc1C1C(C(=O)C(C)C)=C(O)C(=O)N1c1ccc(-c2ccsc2)c(N(C)C)c1 (stereo not drawn) [Compound I-242]
49 | 342 nM | Cc1nc(-c2ccc(N3C(=O)C(O)=C(C(=O)C(C)C)C3c3ccccc3OCCO)cc2)no1 (stereo not drawn) [Compound I-277]
50 | 431 nM | COc1ccccc1C1C(C(=O)C(C)C)=C(O)C(=O)N1c1ccc(-c2ccsc2)c(C)c1 (stereo not drawn) [Compound I-236]
51 | 185 nM | COc1ccccc1C1C(C(=O)C(C)C)=C(O)C(=O)N1c1ccc(-c2ccsc2)c(O)c1 (stereo not drawn) [Compound I-240]
52 | 103 nM | COc1ccccc1C1C(C(=O)c2cccnc2)=C(O)C(=O)N1c1ccc(-c2ccsc2)cc1 (stereo not drawn) [Compound I-460]
53 | 24 nM | Cc1ccc(-c2ccc(N3C(=O)C(O)=C(C(=O)C(C)C)C3c3ccccc3OC(F)(F)F)cc2)o1 (stereo not drawn) [Compound I-359]
54 | 36 nM | CC(C)COc1ccccc1C1C(C(=O)C(C)C)=C(O)C(=O)N1c1ccc(-c2ccon2)cc1 (stereo not drawn) [Compound I-450]
